In paper PMC10794144, “A novel antibiotic class targeting the lipopolysaccharide transporter” (Nature, 2024):
In brackets after ≈: the same amount, converted by molar mass.

Tested on: A. baumannii
Experiment: microbe, parasite or virus in culture
In short: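 Broth microdilution per CLSI M07/M100, with inocula diluted from a 0.5 McFarland suspension in CAMHB, or LB for A. baylyi. MIC was read as the lowest concentration inhibiting growth by eye or beyond which OD600 stopped decreasing.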

For CN1C(=O)[C@H](CCCCN)NC(=O)[C@H](CCCN)NCc2cccnc2Sc2c(Cl)ccc(Cl)c2CNC(=O)[C@@H]1Cc1c[nH]c2ccccc12 [RO7075573], the “MIC 100%” value (ROB08705, Study LGC293598) was at most 0.06 µg/mL, the “MIC 80%” value (ROB08705, Study LGC294355) was at most 0.06 µg/mL and the “MIC 100%” value (ROB08705, Study LGC294355) was 32 µg/mL (≈ 43.3 µM). For the same compound, the “MIC 80%” value (ROB08705, Study LGC295147) was 0.12 µg/mL (≈ 0.162 µM), the “MIC 100%” value (ROB08705, Study LGC295147) was 1 µg/mL (≈ 1.35 µM) and the “MIC 80%” value (ROB08705, Study LGC296813) was at most 0.06 µg/mL. The “MIC 100%” value (ROB08705, Study LGC296813) was at most 0.06 µg/mL, the “MIC 80%” value (ROB08705, Study LGC299544) was 0.12 µg/mL (≈ 0.162 µM) and the “MIC 100%” value (ROB08705, Study LGC299544) was 0.12 µg/mL (≈ 0.162 µM). The “MIC 80%” value (ROB08705, Study LGC301026) was at most 0.06 µg/mL, the “MIC 100%” value (ROB08705, Study LGC301026) was at most 0.06 µg/mL and the “MIC 80%” value (ROB08705, Study LGC308175) was at most 0.06 µg/mL. The “MIC 100%” value (ROB08705, Study LGC308175) was at most 0.06 µg/mL, the “MIC 80%” value (ROB08705, Study ROC010) was 0.12 µg/mL (≈ 0.162 µM) and the “MIC 100%” value (ROB08705, Study ROC010) was 64 µg/mL (≈ 86.5 µM). For the same compound, the “MIC 80%” value (ROB08705, Study ROC012) was at most 0.06 µg/mL, the “MIC 100%” value (ROB08705, Study ROC012) was 0.12 µg/mL (≈ 0.162 µM) and the “MIC 80%” value (ROB08706, Study LGC281440) was 0.25 µg/mL (≈ 0.338 µM). The “MIC 100%” value (ROB08706, Study LGC281440) was 16 µg/mL (≈ 21.6 µM), the “MIC 80%” value (ROB08706, Study LGC282160) was 0.25 µg/mL (≈ 0.338 µM) and the “MIC 100%” value (ROB08706, Study LGC282160) was 64 µg/mL (≈ 86.5 µM). The “MIC 80%” value (ROB08706, Study LGC284879) was 1 µg/mL (≈ 1.35 µM), the “MIC 100%” value (ROB08706, Study LGC284879) was over 64 µg/mL and the “MIC 80%” value (ROB08706, Study LGC285582) was 0.25 µg/mL (≈ 0.338 µM). The “MIC 100%” value (ROB08706, Study LGC285582) was 64 µg/mL (≈ 86.5 µM), the “MIC 80%” value (ROB08706, Study LGC286210) was 0.5 µg/mL (≈ 0.676 µM) and the “MIC 100%” value (ROB08706, Study LGC286210) was 64 µg/mL (≈ 86.5 µM). For the same compound, the “MIC 80%” value (ROB08706, Study LGC293598) was 0.5 µg/mL (≈ 0.676 µM), the “MIC 100%” value (ROB08706, Study LGC293598) was over 64 µg/mL and the “MIC 80%” value (ROB08706, Study LGC294355) was 0.5 µg/mL (≈ 0.676 µM). The “MIC 100%” value (ROB08706, Study LGC294355) was over 64 µg/mL, the “MIC 80%” value (ROB08706, Study LGC295147) was 0.25 µg/mL (≈ 0.338 µM) and the “MIC 100%” value (ROB08706, Study LGC295147) was 64 µg/mL (≈ 86.5 µM). For the same compound, the “MIC 80%” value (ROB08706, Study LGC296813) was 0.5 µg/mL (≈ 0.676 µM), the “MIC 100%” value (ROB08706, Study LGC296813) was 64 µg/mL (≈ 86.5 µM) and the “MIC 80%” value (ROB08706, Study LGC299544) was 0.5 µg/mL (≈ 0.676 µM). For the same compound, the “MIC 100%” value (ROB08706, Study LGC299544) was 64 µg/mL (≈ 86.5 µM), the “MIC 80%” value (ROB08706, Study LGC301026) was 0.5 µg/mL (≈ 0.676 µM) and the “MIC 100%” value (ROB08706, Study LGC301026) was 64 µg/mL (≈ 86.5 µM). For the same compound, the “MIC 80%” value (ROB08706, Study LGC308175) was 0.5 µg/mL (≈ 0.676 µM), the “MIC 100%” value (ROB08706, Study LGC308175) was 64 µg/mL (≈ 86.5 µM) and the “MIC 80%” value (ROB08706, Study ROC010) was 0.5 µg/mL (≈ 0.676 µM). For the same compound, the “MIC 100%” value (ROB08706, Study ROC010) was 0.5 µg/mL (≈ 0.676 µM), the “MIC 80%” value (ROB08706, Study ROC012) was 0.5 µg/mL (≈ 0.676 µM) and the “MIC 100%” value (ROB08706, Study ROC012) was 32 µg/mL (≈ 43.3 µM). For the same compound, the “MIC 80%” value (ROB08707, Study LGC281440) was at most 0.06 µg/mL, the “MIC 100%” value (ROB08707, Study LGC281440) was 16 µg/mL (≈ 21.6 µM) and the “MIC 80%” value (ROB08707, Study LGC282160) was 0.12 µg/mL (≈ 0.162 µM). For the same compound, the “MIC 100%” value (ROB08707, Study LGC282160) was 64 µg/mL (≈ 86.5 µM), the “MIC 80%” value (ROB08707, Study LGC284879) was 0.12 µg/mL (≈ 0.162 µM) and the “MIC 100%” value (ROB08707, Study LGC284879) was over 64 µg/mL. The “MIC 80%” value (ROB08707, Study LGC285582) was 0.12 µg/mL (≈ 0.162 µM), the “MIC 100%” value (ROB08707, Study LGC285582) was 64 µg/mL (≈ 86.5 µM) and the “MIC 80%” value (ROB08707, Study LGC286210) was 0.12 µg/mL (≈ 0.162 µM). For the same compound, the “MIC 100%” value (ROB08707, Study LGC286210) was 64 µg/mL (≈ 86.5 µM), the “MIC 80%” value (ROB08707, Study LGC293598) was at most 0.06 µg/mL and the “MIC 100%” value (ROB08707, Study LGC293598) was over 64 µg/mL. The “MIC 80%” value (ROB08707, Study LGC294355) was 0.12 µg/mL (≈ 0.162 µM), the “MIC 100%” value (ROB08707, Study LGC294355) was over 64 µg/mL and the “MIC 80%” value (ROB08707, Study LGC295147) was 0.12 µg/mL (≈ 0.162 µM). For the same compound, the “MIC 100%” value (ROB08707, Study LGC295147) was 64 µg/mL (≈ 86.5 µM), the “MIC 80%” value (ROB08707, Study LGC296813) was 0.12 µg/mL (≈ 0.162 µM) and the “MIC 100%” value (ROB08707, Study LGC296813) was 64 µg/mL (≈ 86.5 µM). For the same compound, the “MIC 80%” value (ROB08707, Study LGC299544) was 0.12 µg/mL (≈ 0.162 µM), the “MIC 100%” value (ROB08707, Study LGC299544) was 64 µg/mL (≈ 86.5 µM) and the “MIC 80%” value (ROB08707, Study LGC301026) was 0.25 µg/mL (≈ 0.338 µM). The “MIC 100%” value (ROB08707, Study LGC301026) was 64 µg/mL (≈ 86.5 µM), the “MIC 80%” value (ROB08707, Study LGC308175) was at most 0.06 µg/mL and the “MIC 100%” value (ROB08707, Study LGC308175) was 64 µg/mL (≈ 86.5 µM). For the same compound, the “MIC 80%” value (ROB08707, Study ROC010) was 0.12 µg/mL (≈ 0.162 µM), the “MIC 100%” value (ROB08707, Study ROC010) was 0.12 µg/mL (≈ 0.162 µM) and the “MIC 80%” value (ROB08707, Study ROC012) was 0.12 µg/mL (≈ 0.162 µM). The “MIC 100%” value (ROB08707, Study ROC012) was 32 µg/mL (≈ 43.3 µM), the “MIC 80%” value (ROB08708, Study LGC281440) was at most 0.06 µg/mL and the “MIC 100%” value (ROB08708, Study LGC281440) was 16 µg/mL (≈ 21.6 µM). For the same compound, the “MIC 80%” value (ROB08708, Study LGC282160) was 0.12 µg/mL (≈ 0.162 µM), the “MIC 100%” value (ROB08708, Study LGC282160) was 64 µg/mL (≈ 86.5 µM) and the “MIC 80%” value (ROB08708, Study LGC284879) was 0.12 µg/mL (≈ 0.162 µM). The “MIC 100%” value (ROB08708, Study LGC284879) was over 64 µg/mL, the “MIC 80%” value (ROB08708, Study LGC285582) was at most 0.06 µg/mL and the “MIC 100%” value (ROB08708, Study LGC285582) was 64 µg/mL (≈ 86.5 µM). The “MIC 80%” value (ROB08708, Study LGC286210) was 0.12 µg/mL (≈ 0.162 µM), the “MIC 100%” value (ROB08708, Study LGC286210) was 64 µg/mL (≈ 86.5 µM) and the “MIC 80%” value (ROB08708, Study LGC293598) was at most 0.06 µg/mL. For the same compound, the “MIC 100%” value (ROB08708, Study LGC293598) was over 64 µg/mL and the “MIC 80%” value (ROB08708, Study LGC294355) was 0.12 µg/mL (≈ 0.162 µM).
